Measured values published in patent US6099821A, “Nuclear scintigraphic assessment of mucosal function” (University of Virginia, priority 1999, dated 2000).
“Also recorded” adds a separate entry of the source.

Tests used:
[1] = system: jejunum of C3H mice; details: mouse, in vivo, 2 mg/kg
Description: (§1) C3H female mice, 11-13 weeks of age, were used in this study.
(§2) The dynamic enteroscintigraphy with ^99m Tc-pertechnetate and the morphology studies were performed as described above in Example 1.

[2] = system: intestinal villi; format: in vivo, C3H mice; details: 9-AC (4 mg/kg), 3.5 days
Description: (§3) At 3.5 days after irradiation with 4, 6, 8 and 12.5 Gy and immediately upon completion of the absorption study, groups of 4-5 mice per radiation dose were killed by cervical dislocation and a 2-cm length of jejunum was removed for histological preparation. Intestinal segments were fixed in 10% neutral buffered formalin. Four transverse sections of intestine were prepared embedded into paraffin, cut at a thickness of 4 μm and stained with hematoxylin and eosin (H&E). Slides with tissue sections were examined with light microscopy under 400-power magnification. A total of 500 crypt cells per mouse form 12-16 complete crypts were scored as mitotic or apoptotic. The jejunum microcolony assay of H. R. Withers et al., J. Rad. Biol., 17, 261 (1970) was used to quantify jejunal crypt survival. Tissue sections were scored microscopically using 100-power magnification. Surviving crypts contained at least 10 tightly packed columnar epithelial cells located in the base of the crypt (discrete cell microcolonies). The number of surviving crypts/circumference of jejunum was plotted as a function of radiation dose in Gy.
as §1, §2

[3] = system: jejunal mucosa; format: in vivo, C3H mice; details: 2 mg/kg 9-AC + 4 Gy TBI, day 3.5
Description: as §3, §1, §2

[4] = system: jejunal crypts; assay: Jejunal microcolony assay (surviving crypts); format: in vivo, C3H mice; details: 3.5 days, vs control
Description: as §3, §1, §2

[5] = general statement; cited from earlier work
[6] = Toxicity of 9-aminocamptothecin; details: single 2 mg/kg 9-AC intramuscular injection
[7] = system: intestine lumen / technetium pertechnetate active transport
[8] = system: intestine lumen / technetium pertechnetate active transport; details: mouse, in vivo; cited from earlier work
[9] = system: jejunal mucosa; details: intraluminal, after 12.5 Gy TBI
Description: To exclude a role of simple diffusion ("leakage") of the tracer through the irradiated GI mucosa studies of the intestinal permeability with ^67 Ga-citrate complex introduced into the jejunal lumen at 84 hours after exposure to 12.5 Gy were performed.
In order to evaluate if ^99m TcO^-4 absorption remains an active transport process in irradiated animals rather than passive diffusion or "leakage" phenomenon, studies were performed on irradiated gut permeability with ^67 Ga citrate complex.

[10] = system: jejunal mucosa; details: literature, cited from earlier work
[11] = system: mouse jejunal mucosa; assay: Dynamic enteroscintigraphy of jejunal absorption of ^99m TcO^-4 after total body irradiation; format: in vivo, C3Hf/Kam mice; details: for effect of irradiation on intestinal absorption: 4, 6, 8 and 12.5 Gy TBI
Text: The effect of irradiation on pertechnetate (^99m TcO^-4) absorption in the mouse jejunum was studied in situ following single acute total body irradiation (TBI) with 4 Gy, 6 Gy, 8 Gy, and 12.5 Gy. During irradiation, three unanesthetized mice were placed in a 20×20×3.5 cm air-ventilated plastic jig and exposed to a single-source ^60 Co irradiator (Theratron 780-C) at a dose rate of […], with open irradiation field and 71 cm SSD. This setting assured homogeneous dose distribution within ±3% error.
Four to five mice per irradiation dose of 4 Gy, 6 Gy, 8 Gy and 12.5 Gy per day after irradiation (6 Gy irradiated group) were studied for the intestinal absorption function. The mice were fasted overnight (waster ad libitum) and then anesthetized with 100 μL of 1.5 mg/g ketamine solution injected intraperitoneally. The procedure began with a short midline incision of the abdomen after onset of deep anesthesia, and a 3 cm segment of the upper jejunum was identified, ligated with cotton sutures and catheterized with 0.2 mm flexible plastic catheter.
Next, the abdomen incision was closed with cotton sutures and the mouse was positioned under the collimated detector so the 1.5 cm window of the collimator was viewed at the heart projection with 0.2 cm skin-to-collimator distance. A 100 μL physiologic solution containing 100 μCi of Na(^99m TcO4) was rapidly injected through the catheter into the proximal end of the isolated jejunal segment with complete filling of the entire segment.
The absorption rate of ^99m TcO^-4 from the site of injection into the circulation was recorded automatically by measuring the relative radioactivity build-up rate above the heart projection with the frequency of two measurements per second. The entire dynamic enteroscintigraphy procedure took about 15 minutes in control mice. The systemic absorption of the pertechnetate (^99m TcO^-4) was performed on a standard scintillation radiometer combined with a multichannel analyzer (Ludlum Measurements, Sweetwater, Tex.) to record the radiometry data in time-dependent fashion. The software ULTIMA-4 was used to receive the graphic imaging of the dynamic radiometry data.
Measured activity/time curves detected above the heart are mathematically modeled as exponential saturation of the form y(t)=y0+dy {1-exp[-k(t-t0)]}; where y(t) is the observed time-dependent radioactive counts above the heart; y0 is the observed activity at time of tracer introduction, t0; dy is the magnitude of the change in radioactive counts after tracer introduction; and k is the rate constant characteristic of the active transport of tracer through the intestinal wall into the systemic blood circulation. Analyses of tracer absorption kinetics by this expression allow precise statistical assessment of radiation-induced functional impairment of the jejunal active transport process.

[12] = literature, cited from earlier work

## CC[C@@]1(O)C(=O)OCc2c1cc1n(c2=O)Cc2cc3c(N)cccc3nc2-1 [9-aminocamptothecin]
[1]
  mean rate of ^99m Tc-pertechnetate intestinal absorption: significantly delayed
[2]
  cell loss on the intestinal villi: maximal cell loss on the intestinal villi
[3]
  additive decrease in absorption vs number of apoptotic cells in the jejunal mucosa: correlates well with the number of apoptotic cells in the jejunal mucosa
[4]; 9-AC (2 mg/kg) plus irradiation (4 Gy)
  jejunal crypt survival: failed to show any difference in jejunal crypt survival
[4]; 9-AC alone (2 mg/kg)
  jejunal crypt survival: failed to show any difference in jejunal crypt survival
[5]
  GI toxicity: pronounced GI toxicity
[6]
  2 mg/kg intramuscular dose as fraction of LD10: 1/2

## [K+].[O-][Cl+3]([O-])([O-])[O-] [KClO4, potassium perchlorate]
[7]; mouse, in vivo
  shift of the saturation point on the radioactivity/time curve: shifted the saturation point on the radioactivity/time curve to the right without changes in the amount of the absorbed tracer
[8]
  competitive inhibition of technetium pertechnetate active transport: known competitive inhibitor

## O=C([O-])CC(O)(CC(=O)[O-])C(=O)[O-].[67Ga+3] [^67 Ga-citrate]
[9]
  jejunal mucosa permeability: jejunal mucosa stays impermeable
[10]; inflammation or local hyperthermia
  accumulation in the sites of lesion: augments ^67 Ga-citrate accumulation in the sites of lesion
[10]; normal
  crossing of the intestinal epithelial barrier: normally does not cross the intestinal epithelial barrier

## [131IH] [^131 Iodine, iodine-131]
[7]; mouse, in vivo
  shape of intestinal absorption curve / active transport kinetics: same shape of the ^99m TcO^-4 intestinal absorption curve was obtained

## technetium pertechnetate [^99m TcO^-4]
[11]
  effect of irradiation on intestinal absorption: substantial dose-dependent decrease in the absorption function; also recorded: significantly decreases ^99m TcO^-4 jejunal absorption
[11]; listed as 99m Technetium-pertechnetate
  effect of irradiation on intestinal absorption: decreased in a dose-dependent fashion
[11]; 4 Gy TBI, 3.5 days after irradiation
  mean rate of the tracer absorption: 1.51±0.15
[11]; 6 Gy TBI
  time of minimal absorption after irradiation: 3.5 days
  time to return of absorption rate to a normal level: about 14 days
[11]; 6 Gy TBI, 24 hours after irradiation
  effect of irradiation on absorption function at 24 hours: significant decrease in the absorption function; also recorded: significant effect
[11]; 12.5 Gy TBI, 3.5 days after irradiation, listed as 99m Technetium-pertechnetate
  jejunal absorption, % of the control level: ~25 % of the control level
[11]; 3.5 days after 4 to 12.5 Gy
  correlation of decrease in absorption with cells per villus and irradiation dose: correlated with the numbers of cells per villus and the irradiation dose
[11]; control (no irradiation)
  mean rate of the tracer absorption: 1.35±0.25
[11]; independently of TBI doses used
  time of maximal reduction of absorption: 84 h
[7]; control mice
  intestinal absorption into the bloodstream: Rapid absorption
[12]
  metabolic activity: low metabolic activity
  radiotoxicity: one of the least radiotoxic nuclides
  γ-emission energy: 140 keV
[12]; radionuclide
  half-life: 6 h
